Experiment [1] concerns LPS induced neutrophilia. Kind of experiment: LPS induced neutrophilia, Compound 52 and aclidinium bromide. Conditions: BAL 4 h after LPS, Compound 52 3 mg/kg p.o., aclidinium 50 mcg/ml inh; for inhibition at 3 mg/kg: Rattus norvegicus, Neutrophil, po, read-out: No of neutrophils, % inhibition (mean ± S.E.M.) (converted). The format is in vivo, male SD rats. How it is done:
The effect of combination of Compound 52 and aclidinium bromide on LPS induced neutrophilia in male SD rats was evaluated. Animals were grouped as mentioned in Table 4.
LPS was nebulized at concentration of 100 mcg ml^−1 for 40 min at 0.4 ml/min and a pressure of 1.7 psig in a Perspex exposure chamber (1.5×1×1 ft) fitted with nebulizer (RCI Hudson). Control animals were given saline exposure under similar conditions. All the animals were treated with compounds as mentioned in Table 4. Compound 52 (3 mg/kg/5 ml) was administered orally 2 h prior to LPS and aclidinium (50 mcg/ml) was nebulized at the rate of 0.05 ml/min and exposed to the animals for 3 min prior LPS exposure.
Bronchoalveolar lavage (BAL) was done after 4 h of LPS exposure. Animals were anesthetized with urethane (1.2 gm/kg/5 mL, i.p. in normal saline) and BAL was done with PBS (3 ml). This procedure was repeated three times and the BAL fluid was pooled for the measurement of total leukocyte. Remaining BAL fluid was centrifuged immediately at 4000 rpm for 20 min. The pellet formed in the bottom of the tube was used for the smear preparation for differential leukocyte count estimation. The smeared slides were fixed by alcohol and stained using Leishman's stain further carried for differential leukocyte count.

Experiment [2] relates to LPS induced neutrophilia. Kind of experiment: LPS induced neutrophilia, Compound 52 and ipratropium bromide. The format is in vivo, male SD rats. Conditions: for inhibition at 6 mg/kg: Rattus norvegicus, Neutrophil, po. How it is done: Animals were grouped as mentioned in Table 8. LPS at a concentration of 100 mcg ml^−1 was nebulized for 40 min at 0.4 ml/min and a pressure of 1.7 psig in a Perspex exposure chamber (1.5×1×1 ft) fitted with nebulizer (RCI Hudson). Control animals were given saline exposure under similar conditions. All the animals were treated as mentioned in Table 8. […] Bronchoalveolar lavage (BAL) was done after 4 h of LPS exposure. Animals were anesthetized with urethane (1.2 gm/kg/5 mL, i.p. in normal saline) and BAL was done with PBS (3 ml). This procedure was repeated three times and the BAL fluid was pooled for the measurement of total leukocyte. Remaining BAL fluid was centrifuged at 4000 rpm for 20 min. The pellet formed in the bottom of the tube was used for the smear preparation for differential leukocyte count estimation. The differential leukocyte count was done using Leishman's stain. […] Statistical significance was set at p<0.05.

The test system of experiment [3] is methacholine-induced bronchoconstriction. As to the kind of experiment: Methacholine challenge test (methacholine-induced bronchoconstriction), invasive whole body plethysmograph. The format is in vivo, male Dunkin Hartley guinea pig. Conditions: for inhibition at 10 mg/kg: Cavia porcellus, read-out: % inhibition in airway resistance (Mean ± SEM). On the procedure: The effect of Compound 52, tiotropium bromide and their combination on methacholine challenge test in male Dunkin Hartley guinea pig was evaluated using invasive whole body plethysmograph (Elan™ R C, Buxco apparatus). Animals and grouped as described in Table 2.
Animals were anesthetized by intraperitonial injection of urethane (1 g/kg). The surgical process carried out in the aseptic area. Right jugular vein of anesthetized animal was exposed and cannulated with fine bore polythene tube. Trachea was also cannulated for artificial respiration and to measure airway resistance. The prepared animal was fixed in the invasive whole body plethysmograph with artificial respiration (tidal volume −7 ml). Methacholine challenge test was performed and the recordings were taken by the following schedule. • First log period: Baseline −5 min • Second log period: Normal saline −3 min • Third log period: Methacholine −3 min
This protocol was performed for all groups. Compound 52 (10 mg/kg, i.p.) was injected 4 hour prior to methacholine challenge. Tiotropium (0.5 mcg/kg, i.v) was given at second log period. In third log period, the animal was injected with methacholine (60 mcg/kg/2 ml, i.v). The methacholine induced bronchoconstriction (expressed as airway resistance (RI value in cmH2O*sec/ml)) was recorded by Buxco apparatus.

Experiment [4] deals with LPS induced neutrophilia. Kind of experiment: LPS induced neutrophilia, Compound 52 and tiotropium. Conditions: for inhibition at 3 mg/kg: Rattus norvegicus, Neutrophil, po. The format is in vivo, female SD rats. On the procedure: The effect of combination of Compound 52 and tiotropium on LPS induced neutrophilia in female SD rats was evaluated. Female SD rats were grouped as mentioned in Table 6. Compound 52 (3 mg/kg/5 ml) and tiotropium (1 mcg/ml as inhalation for 3 min at the rate of 0.05 ml/min) were administered 2 and 1 hour prior to LPS exposure respectively. LPS was nebulized at concentration of 100 mcg ml^−1 for 40 min at 0.4 ml min^−1 and a pressure of 1.7 psig in a perspex exposure chamber (1.5×1×1 ft) fitted with nebulizer (RCI Hudson). Control animals were given saline exposure under similar conditions.
Bronchoalveolar lavage (BAL) was done after 4 h of LPS exposure. Animal was anesthetized with urethane (1.2 gm/kg/5 mL, i.p. in normal saline) and BAL was done with PBS (3 ml). This procedure was repeated three times and the BAL fluid was pooled for the measurement of total leukocyte. BAL fluid was centrifuged immediately at 4000 rpm for 20 min and the pellet formed in the bottom of the tube was used for the smear preparation for differential leukocyte count estimation.

The target in experiment [5] is T1, human TRPA1 receptor (Homo sapiens, UniProt O75762).
T1 construct: expressed in transfected cells; host or cells: CHO cells
T1 sequence (O75762 whole entry): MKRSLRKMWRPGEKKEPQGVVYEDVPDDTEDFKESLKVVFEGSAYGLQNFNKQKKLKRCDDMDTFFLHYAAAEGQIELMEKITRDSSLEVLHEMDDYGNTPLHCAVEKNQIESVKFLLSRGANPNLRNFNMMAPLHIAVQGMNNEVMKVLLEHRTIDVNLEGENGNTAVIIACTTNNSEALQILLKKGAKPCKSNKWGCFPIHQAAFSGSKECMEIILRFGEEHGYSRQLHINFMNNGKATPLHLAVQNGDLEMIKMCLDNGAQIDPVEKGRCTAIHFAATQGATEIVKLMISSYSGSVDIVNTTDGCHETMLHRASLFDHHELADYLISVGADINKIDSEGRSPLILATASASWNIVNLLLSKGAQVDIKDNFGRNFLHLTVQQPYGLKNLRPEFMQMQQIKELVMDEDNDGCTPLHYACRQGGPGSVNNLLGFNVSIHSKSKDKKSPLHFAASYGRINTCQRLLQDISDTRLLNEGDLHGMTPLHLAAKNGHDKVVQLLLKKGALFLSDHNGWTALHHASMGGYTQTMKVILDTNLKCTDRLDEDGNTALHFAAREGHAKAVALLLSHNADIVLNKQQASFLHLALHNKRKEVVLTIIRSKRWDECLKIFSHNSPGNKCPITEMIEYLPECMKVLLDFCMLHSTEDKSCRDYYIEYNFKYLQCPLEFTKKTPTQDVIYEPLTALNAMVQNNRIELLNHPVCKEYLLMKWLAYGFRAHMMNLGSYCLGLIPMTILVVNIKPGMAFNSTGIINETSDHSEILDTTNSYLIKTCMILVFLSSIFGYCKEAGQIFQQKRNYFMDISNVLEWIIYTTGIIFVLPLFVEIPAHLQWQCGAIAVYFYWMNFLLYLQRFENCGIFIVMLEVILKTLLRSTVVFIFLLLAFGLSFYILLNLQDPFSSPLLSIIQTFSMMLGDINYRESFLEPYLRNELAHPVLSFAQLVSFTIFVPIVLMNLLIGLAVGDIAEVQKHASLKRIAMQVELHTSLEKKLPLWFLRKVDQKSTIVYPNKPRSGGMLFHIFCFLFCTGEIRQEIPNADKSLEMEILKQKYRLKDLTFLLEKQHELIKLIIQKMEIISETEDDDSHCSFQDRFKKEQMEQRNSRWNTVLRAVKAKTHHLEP
Kind of experiment: Inhibition of AITC induced cellular uptake of radioactive calcium in human TRPA1 expressing CHO cells. The format is cell-based. Conditions: read-out: hTRPA1 IC50 values. On the procedure: The human IC50 values were measured by the following method:
The inhibition of TRPA1 receptor activation was measured as inhibition of allylisothiocyanate (AITC) induced cellular uptake of radioactive calcium.

The mark [6] stands for this setting: BAL 4 h after LPS, Compound 52 6 mg/kg p.o., ipratropium 1 mg/ml inh.
Where [7] appears, read: 4 h, read-out: No of neutrophils, % inhibition (mean ± S.E.M.).
The mark [8] stands for this setting: Compound 52 10 mg/kg i.p. 4 hour prior, tiotropium bromide 0.5 mcg/kg i.v., methacholine 60 mcg/kg i.v.
Setting [9] is: BAL 4 h after LPS, Compound 52 3 mg/kg p.o., tiotropium 1 mcg/ml inh.

Like-named read-outs stand apart in the source and are kept apart here.

By inhibition is commonly meant the change of the read-out against control, counted positive when it falls. Consider `O=C(O[C@H]1C[N+]2(CCCOc3ccccc3)CCC1CC2)C(O)(c1cccs1)c1cccs1.[Br-]` [Aclidinium bromide, [(8R)-1-(3-phenoxypropyl)-1-azoniabicyclo[2.2.2]octan-8-yl]2-hydroxy-2,2-dithiophen-2-ylacetate bromide, reference compound], for which, in experiment [1], the “No of neutrophils (mean ± S.E.M.)” value turned out to be 7.13 ± 1.03 and the inhibition at 3 mg/kg was 21.1%.
In the case of `CC(C)[N+]1(C)[C@@H]2CC[C@H]1C[C@@H](OC(=O)C(CO)c1ccccc1)C2` (some centres unmarked) [Ipratropium bromide, 8-azoniabicyclo (3.2.1) octane, 3-(3-hydroxy-1-oxo-2-phenylpropoxy)-8-methyl-8-(1-methylethyl)-, bromide monohydrate, reference compound], in experiment [2] (setting [6]), the “No of neutrophils (mean ± S.E.M.)” value came out at 6.2 ± 0.6. In addition, the inhibition at 6 mg/kg in experiment [2] (setting [7]) is 23%.
Turning to `Cn1c(=O)c2c(CC(=O)Nc3nc(-c4ccc(F)c(C(F)(F)F)c4F)cs3)csc2n(C)c1=O` [Compound 52], the inhibition at 10 mg/kg in experiment [3] (setting [8]) came out at 37.9 ± 6.7%. In addition, the “Mean airway resistance (Mean ± SEM)” value in experiment [3] (setting [8]) came out at 0.77 ± 0.11 cmH2O*sec/ml. The “No of neutrophils (mean ± S.E.M.)” value is listed as 6.73 ± 0.72 in experiment [1], 6.7 ± 0.9 in experiment [4] (setting [9]) and 8.4 ± 0.8 in experiment [2] (setting [6]). In addition, the inhibition at 3 mg/kg was 20.4% in experiment [1] and 17.9% in experiment [4] (BAL 4 h after LPS, Compound 52 3 mg/kg p.o., tiotropium 1 mcg/ml inh, read-out: No of neutrophils, % inhibition (mean ± S.E.M.) (converted)). In experiment [2] (BAL 4 h after LPS, Compound 52 6 mg/kg p.o., ipratropium 1 mg/ml inh, read-out: No of neutrophils, % inhibition (mean ± S.E.M.) (converted)), the inhibition at 6 mg/kg was -3.2%.
Regarding `C[N+]1(C)[C@@H]2C[C@@H](OC(=O)C(O)(c3cccs3)c3cccs3)C[C@H]1[C@@H]1O[C@@H]12` [Tiotropium bromide, (1α, 2β, 4β, 5α, 7β)-7-[(hydroxydi-2-thienylacetyl)oxy]-9,9-dimethyl-3-oxa-9-azoniatricyclo[3.3.1.02,4] nonane bromide monohydrate, reference compound], the inhibition at 10 mg/kg in experiment [3] is -10.7 ± 23.4%. Moreover, the “Mean airway resistance (Mean ± SEM)” value in experiment [3] (setting [8]) came to 1.51 ± 0.32 cmH2O*sec/ml. Also, in experiment [4] (setting [9]), the “No of neutrophils (mean ± S.E.M.)” value is reported as 6.8 ± 0.7. Further, the inhibition at 3 mg/kg in experiment [4] (setting [7]) is 18.9%.
One may read the IC50 as the midpoint of a concentration-inhibition curve. For the molecule `Cn1c(=O)c2c(CC(=O)/N=c3\scc(-c4ccc(F)c(C(F)(F)F)c4F)n3COP(=O)(O)O)csc2n(C)c1=O` [Compound 96], the IC50 in experiment [5] worked out at 0.559 µM.

Values taken from patent publication US20140364445A1, “PHARMACEUTICAL COMPOSITION COMPRISING A TRPA1 ANTAGONIST AND AN ANTICHOLINERGIC AGENT” (GLENMARK PHARMACEUTICALS S.A., priority 2011, published 2014).
